Results as given in article PMC11790914, “Chemogenomics for steroid hormone receptors (NR3)” (Communications Chemistry, 2025).
Several values for one entry are separate records, joined by “and”; a condition that tells them apart may be missing. Identical values can stand only once.

Assays:
HEK293T cells [1] = assay: Cytotoxicity: apoptosis induction (caspase-3/7 DEVD fluorogenic DNA dye); details: HEK293T, 24 h, apoptotic cell count normalized to 0.1% DMSO, single replicates
BRD4 = molecular target: T1, BRD4 (Homo sapiens, UniProt O60885); assay: Liability panel screening by DSF: BRD4; format: binding; details: DSF, 20 µM, n=2; read-out: Mean ΔTM BRD4
T1 construct: This panel comprised ten highly ligandable kinases and bromodomains; made in house
In short: (§1)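 Recombinant protein at 2 µM in 10 mM HEPES pH 7.5 with 500 mM NaCl was mixed with SYPRO Orange (1:1000) and heated at 3 °C/min up to 85 °C. Tm was taken as the Boltzmann-fit inflection point. Shifts are ∆Tm in K from technical duplicates.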

ABL1 = molecular target: T2, ABL1 (Homo sapiens, UniProt P00519); assay: Liability panel screening by DSF: ABL1; format: binding; details: DSF, 20 µM, n=2; read-out: Mean ΔTM ABL1
T2 construct: made in house
T2 sequence (P00519 whole entry, species assumed): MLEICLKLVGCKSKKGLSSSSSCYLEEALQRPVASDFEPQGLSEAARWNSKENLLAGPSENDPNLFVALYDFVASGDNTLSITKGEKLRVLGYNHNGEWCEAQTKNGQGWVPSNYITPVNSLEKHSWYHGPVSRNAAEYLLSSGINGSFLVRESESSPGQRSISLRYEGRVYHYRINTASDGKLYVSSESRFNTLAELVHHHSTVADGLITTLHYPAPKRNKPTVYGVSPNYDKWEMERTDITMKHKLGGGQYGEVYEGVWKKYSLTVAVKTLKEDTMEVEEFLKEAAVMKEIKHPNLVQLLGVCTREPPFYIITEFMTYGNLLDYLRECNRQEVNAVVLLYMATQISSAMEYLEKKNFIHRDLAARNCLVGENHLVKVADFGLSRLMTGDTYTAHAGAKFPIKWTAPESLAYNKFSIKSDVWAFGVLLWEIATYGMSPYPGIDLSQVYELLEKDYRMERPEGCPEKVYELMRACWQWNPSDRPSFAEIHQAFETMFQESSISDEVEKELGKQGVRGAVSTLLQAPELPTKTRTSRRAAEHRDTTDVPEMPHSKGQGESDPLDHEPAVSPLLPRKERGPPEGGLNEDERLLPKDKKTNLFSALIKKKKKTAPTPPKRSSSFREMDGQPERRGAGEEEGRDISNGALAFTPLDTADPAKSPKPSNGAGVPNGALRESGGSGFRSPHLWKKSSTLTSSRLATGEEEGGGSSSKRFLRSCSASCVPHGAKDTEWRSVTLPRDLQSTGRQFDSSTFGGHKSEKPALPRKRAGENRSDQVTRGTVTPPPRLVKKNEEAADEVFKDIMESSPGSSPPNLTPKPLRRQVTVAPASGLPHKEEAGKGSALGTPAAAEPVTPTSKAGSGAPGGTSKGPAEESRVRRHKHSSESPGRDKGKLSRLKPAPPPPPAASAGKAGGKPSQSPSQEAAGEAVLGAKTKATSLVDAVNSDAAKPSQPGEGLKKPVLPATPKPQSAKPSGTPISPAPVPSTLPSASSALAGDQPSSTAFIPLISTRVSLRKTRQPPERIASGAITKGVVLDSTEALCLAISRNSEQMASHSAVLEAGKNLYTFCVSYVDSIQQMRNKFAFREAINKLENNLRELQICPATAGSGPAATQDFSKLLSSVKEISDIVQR
In short: as §1

BRPF1 = molecular target: T3, BRPF1 (Homo sapiens, UniProt P55201); assay: Liability panel screening by DSF: BRPF1; format: binding; details: DSF, 20 µM, n=2; read-out: Mean ΔTM BRPF1
T3 construct: This panel comprised ten highly ligandable kinases and bromodomains; made in house
T3 sequence (P55201 628-732 limits assumed): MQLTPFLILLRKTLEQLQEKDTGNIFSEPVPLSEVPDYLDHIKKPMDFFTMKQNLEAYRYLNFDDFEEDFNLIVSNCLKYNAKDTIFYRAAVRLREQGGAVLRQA
In short: as §1

[2] = system: NF-κB activity in HEK293 NF-κB reporter cells; assay: NF-kB activity assay (GFP reporter, ionomycin/PMA); format: cell-based; details: n=3
In short: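 Reporter readout: GFP-expressing cells normalized to confluence, imaged every 90 min across 24 h after ionomycin (100 ng/mL)/PMA (10 ng/mL) stimulation of HEK293 cells pre-treated 4 h with compound (0.1% DMSO); triplicate independent experiments.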

AURKA = molecular target: T4, AURKA (Homo sapiens, UniProt O14965); assay: Liability panel screening by DSF: AURKA; format: binding; details: DSF, 20 µM, n=2; read-out: Mean ΔTM AURKA
T4 construct: made in house
T4 sequence (O14965 1-403): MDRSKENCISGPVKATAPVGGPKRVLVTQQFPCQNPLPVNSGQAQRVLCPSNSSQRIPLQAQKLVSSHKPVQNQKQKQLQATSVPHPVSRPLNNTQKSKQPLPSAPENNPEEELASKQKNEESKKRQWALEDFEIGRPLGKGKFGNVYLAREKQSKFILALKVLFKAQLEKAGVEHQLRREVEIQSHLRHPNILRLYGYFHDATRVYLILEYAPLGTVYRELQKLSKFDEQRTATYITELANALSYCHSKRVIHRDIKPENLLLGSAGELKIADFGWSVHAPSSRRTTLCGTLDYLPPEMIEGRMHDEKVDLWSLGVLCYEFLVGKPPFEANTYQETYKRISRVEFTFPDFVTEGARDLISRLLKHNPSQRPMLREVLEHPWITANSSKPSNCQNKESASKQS
In short: as §1

HEK293T cells [3] = assay: Cytotoxicity: necrosis induction (red fluorescent dye for permeable plasma membranes); format: cell-based; details: 24 h, necrotic cell count normalized to 0.1% DMSO, single replicates;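 also: compounds applied in DMEM high glucose with 0.1% FCS and 0.1% DMSO, necrotic HEK293T cells counted by red staining of cells whose plasma membranes had become permeable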
Description: Cells were incubated with the test compounds at the indicated concentrations solubilized with 0.1% DMSO for 24 h. […] Necrotic cells were detected with a red fluorescent dye that labels cells with permeable plasma membranes after 24 h treatment and the necrotic cell count was normalized to 0.1% DMSO treated cells (n = 4). e NR family selectivity profiling of NR3 CG compound candidates in uniform Gal4-hybrid reporter gene assays for selected NR representing the NR1, NR2, NR4 and NR5 families.
HEK293T cells (German Collection of Microorganisms and Cell Culture GmbH, DSMZ; #ACC305) were cultured in DMEM high glucose, supplemented with 10% fetal calf serum (FCS), sodium pyruvate (1 mM), penicillin (100 µ/mL) and streptomycin (100 µg/mL) at 37 °C and 5% (v/v) CO2, and seeded in pre-coated (10 µg/mL collagen G solution (Merck KgaA; #L7213) for 30 min at 37 °C) 96-well plates (2 × 10^5 cells per well). After 24 h, the cells were treated with the respective NR3 CG compound candidate at the recommended concentration, bexarotene (100 µM) or doxorubicin (30 µM) as positive controls in DMEM high glucose supplemented with 0.1% FCS, penicillin (100 µ/mL), streptomycin (100 µg/mL) and 0.1% DMSO, or 0.1% DMSO alone as an untreated control. Each sample was prepared in at least four biologically independent replicates. […] Before drug administration, after the first medium exchange, 24 h after drug administration, and after fluorescence imaging cell confluence was assessed using the Tecan Spark Cyto, to account for changes in cell confluence due to drug administration and cell handling. Compound effects on cell confluence, apoptosis, metabolic activity and necrosis were normalized to the vehicle control of each biological replicate individually.

TRIM24 = molecular target: T5, TRIM24 (Homo sapiens, UniProt O15164); assay: Liability panel screening by DSF: TRIM24; format: binding; details: DSF, 20 µM, n=2; read-out: Mean ΔTM TRIM24
T5 construct: This panel comprised ten highly ligandable kinases and bromodomains; made in house
T5 sequence (O15164 899-1004 limits assumed): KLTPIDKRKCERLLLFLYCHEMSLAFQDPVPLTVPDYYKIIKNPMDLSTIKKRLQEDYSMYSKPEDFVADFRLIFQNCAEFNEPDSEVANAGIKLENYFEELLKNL
In short: as §1

[4] = system: ATF6 activity in Hela ATF6 reporter cells; assay: Endoplasmic reticulum stress assay (ATF6 Renilla luciferase reporter, tunicamycin); format: cell-based
In short: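 ER stress was induced by 100 ng/mL tunicamycin added 4 h after compound (0.1% DMSO) to HeLa ATF6 reporter cells. After 18 h more, Renilla luciferase signal was read and expressed relative to DMSO control, n=5 biological replicates.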

HEK293T cells [5] = assay: Cytotoxicity: metabolic activity (WST-8 / CCK-8 assay); details: HEK293T, 24 h, WST-8, normalized to 0.1% DMSO, single replicates
MAPK1 = molecular target: T6, MAPK1 (Homo sapiens, UniProt P28482); assay: Liability panel screening by DSF: MAPK1; format: binding; details: DSF, 20 µM, n=2; read-out: Mean ΔTM MAPK1
T6 construct: made in house
T6 sequence (P28482 whole entry, species assumed): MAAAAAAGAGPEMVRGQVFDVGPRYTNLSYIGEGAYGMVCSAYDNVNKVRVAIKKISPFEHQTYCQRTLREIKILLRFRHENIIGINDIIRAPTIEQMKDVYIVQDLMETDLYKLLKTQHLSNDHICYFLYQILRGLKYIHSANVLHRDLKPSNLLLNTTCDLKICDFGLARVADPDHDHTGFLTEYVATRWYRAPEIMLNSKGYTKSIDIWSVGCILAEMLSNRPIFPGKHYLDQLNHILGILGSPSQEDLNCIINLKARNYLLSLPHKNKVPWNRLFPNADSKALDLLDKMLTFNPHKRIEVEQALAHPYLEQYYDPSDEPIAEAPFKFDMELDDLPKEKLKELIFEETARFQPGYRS
In short: as §1

FGFR3 = molecular target: T7, FGFR3 (Homo sapiens, UniProt P22607); assay: Liability panel screening by DSF: FGFR3; format: binding; details: DSF, 20 µM, n=2; read-out: Mean ΔTM FGFR3
T7 construct: made in house
T7 sequence (P22607 23-806, species assumed): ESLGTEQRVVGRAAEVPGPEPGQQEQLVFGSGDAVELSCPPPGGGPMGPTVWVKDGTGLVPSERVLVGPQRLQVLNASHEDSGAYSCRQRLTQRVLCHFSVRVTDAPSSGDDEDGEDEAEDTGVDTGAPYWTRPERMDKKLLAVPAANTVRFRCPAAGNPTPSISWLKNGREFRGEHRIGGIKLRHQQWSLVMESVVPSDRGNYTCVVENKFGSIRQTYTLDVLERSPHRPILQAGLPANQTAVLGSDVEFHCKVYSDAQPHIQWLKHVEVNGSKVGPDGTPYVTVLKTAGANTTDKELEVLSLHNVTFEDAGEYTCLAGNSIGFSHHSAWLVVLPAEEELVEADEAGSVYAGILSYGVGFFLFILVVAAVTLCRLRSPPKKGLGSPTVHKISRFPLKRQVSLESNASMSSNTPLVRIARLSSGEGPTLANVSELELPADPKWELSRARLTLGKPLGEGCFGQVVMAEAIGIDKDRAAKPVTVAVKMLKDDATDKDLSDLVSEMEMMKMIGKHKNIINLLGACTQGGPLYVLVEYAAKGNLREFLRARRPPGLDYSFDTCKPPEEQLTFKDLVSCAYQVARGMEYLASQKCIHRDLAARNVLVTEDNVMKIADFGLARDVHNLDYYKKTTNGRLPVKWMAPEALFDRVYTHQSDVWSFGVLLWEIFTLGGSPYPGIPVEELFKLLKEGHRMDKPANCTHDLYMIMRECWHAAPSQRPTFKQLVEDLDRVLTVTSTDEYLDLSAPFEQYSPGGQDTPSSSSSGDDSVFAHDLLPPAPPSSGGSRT
In short: as §1

NR3B3 (ERRγ) = details: ref Supplementary Table 1, cited from earlier work
CDK2 = molecular target: T8, CDK2 (Homo sapiens, UniProt P24941); assay: Liability panel screening by DSF: CDK2; format: binding; details: DSF, 20 µM, n=2; read-out: Mean ΔTM CDK2
T8 construct: made in house
In short: as §1

HEK293T cells [6] = assay: Cytotoxicity: growth-rate (change in confluence over 24 h); details: normalized to 0.1% DMSO control, single replicates (n=1...)
Description: Cells were incubated with the test compounds at the indicated concentrations solubilized with 0.1% DMSO for 24 h. Growth-rate was determined based on the change in confluence over 24 h normalized to the change in confluence of cells treated with the 0.1% DMSO control (n = 10). Metabolic activity was determined with a water-soluble tetrazolium-8 (WST-8) assay (n = 8) after 24 h treatment. Apoptotic cells were detected with a fluorogenic DNA dye coupled to the caspase-3/7 recognition sequence (DEVD) after 24 h treatment and the apoptotic cell count was normalized to 0.1% DMSO treated cells (n = 6).
HEK293T cells (German Collection of Microorganisms and Cell Culture GmbH, DSMZ; #ACC305) were cultured in DMEM high glucose, supplemented with 10% fetal calf serum (FCS), sodium pyruvate (1 mM), penicillin (100 µ/mL) and streptomycin (100 µg/mL) at 37 °C and 5% (v/v) CO2, and seeded in pre-coated (10 µg/mL collagen G solution (Merck KgaA; #L7213) for 30 min at 37 °C) 96-well plates (2 × 10^5 cells per well). After 24 h, the cells were treated with the respective NR3 CG compound candidate at the recommended concentration, bexarotene (100 µM) or doxorubicin (30 µM) as positive controls in DMEM high glucose supplemented with 0.1% FCS, penicillin (100 µ/mL), streptomycin (100 µg/mL) and 0.1% DMSO, or 0.1% DMSO alone as an untreated control. Each sample was prepared in at least four biologically independent replicates. […] Thereafter, the medium was aspirated and the cells were incubated for 3 h with 90 µL DMEM high glucose supplemented with 0.2% FCS, penicillin (100 µ/mL) and streptomycin (100 µg/mL) and additionally containing 10 µL Cell Counting Kit 8 solution (CCK-8; MedChemExpress, Monmouth Junction, New York, USA; #HY-K0301), and absorbance was measured at 1 h, 2 h and 3 h of incubation at 450 nm on a Tecan Spark Cyto to assess metabolic activity of the cells. Before drug administration, after the first medium exchange, 24 h after drug administration, and after fluorescence imaging cell confluence was assessed using the Tecan Spark Cyto, to account for changes in cell confluence due to drug administration and cell handling. Compound effects on cell confluence, apoptosis, metabolic activity and necrosis were normalized to the vehicle control of each biological replicate individually.

GSK3B = molecular target: T9, GSK3B (Homo sapiens, UniProt P49841); assay: Liability panel screening by DSF: GSK3B; format: binding; details: DSF, 20 µM, n=2; read-out: Mean ΔTM GSK3B
T9 construct: made in house
T9 sequence (P49841 whole entry, species assumed): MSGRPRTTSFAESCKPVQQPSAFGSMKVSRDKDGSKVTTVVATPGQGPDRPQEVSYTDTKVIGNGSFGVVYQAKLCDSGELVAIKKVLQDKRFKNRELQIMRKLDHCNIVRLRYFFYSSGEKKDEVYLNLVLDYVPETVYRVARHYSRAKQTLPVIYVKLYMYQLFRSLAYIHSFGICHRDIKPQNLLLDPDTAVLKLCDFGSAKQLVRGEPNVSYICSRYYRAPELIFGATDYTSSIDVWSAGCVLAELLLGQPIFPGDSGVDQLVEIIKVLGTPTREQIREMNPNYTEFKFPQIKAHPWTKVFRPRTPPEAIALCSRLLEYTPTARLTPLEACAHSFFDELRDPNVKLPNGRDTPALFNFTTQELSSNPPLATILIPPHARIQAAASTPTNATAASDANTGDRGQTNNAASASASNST

Gal4-VP16 = format: cell-based; details: 3 µM; vs. DMSO ctrl; single replicates n=1-3
NR3B2 (ERRβ) = details: ref Supplementary Table 1; cited from earlier work
CSNK1D = molecular target: T10, CSNK1D (Homo sapiens, UniProt P48730); assay: Liability panel screening by DSF: CSNK1D; format: binding; details: DSF, 20 µM, n=2; read-out: Mean ΔTM CSNK1D
T10 construct: made in house
T10 sequence (P48730 whole entry, species assumed): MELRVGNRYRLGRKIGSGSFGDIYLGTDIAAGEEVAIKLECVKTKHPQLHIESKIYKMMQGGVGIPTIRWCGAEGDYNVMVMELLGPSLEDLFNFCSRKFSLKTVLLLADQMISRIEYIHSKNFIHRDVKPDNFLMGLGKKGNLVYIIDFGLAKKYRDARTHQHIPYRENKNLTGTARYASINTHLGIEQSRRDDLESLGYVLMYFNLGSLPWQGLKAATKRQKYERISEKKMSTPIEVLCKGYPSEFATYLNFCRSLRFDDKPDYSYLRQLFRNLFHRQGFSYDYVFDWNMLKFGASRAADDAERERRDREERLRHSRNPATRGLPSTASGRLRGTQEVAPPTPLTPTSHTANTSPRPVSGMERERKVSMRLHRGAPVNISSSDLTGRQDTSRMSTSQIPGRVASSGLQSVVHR
In short: as §1

SMILES: CC(C)(c1ccc(O)cc1)c1ccc(O)cc1 [Bisphenol A]
- Apoptosis induction [AI] (HEK293T cells [1]; 0.3 µM): 0.73 and 0.80 and 0.66 and 1.02 and 0.52 and 0.91
- ΔTm at 20 µM (BRD4): -2.63 °C
- ΔTm at 20 µM (ABL1): 0.26 °C
- ΔTm at 20 µM (BRPF1): -2.21 °C
- Mean NFκB response ([2]; 0.3 µM, 1,5 h): 2380.54 GFP+-cells/confluence ∙ 1000
- Mean NFκB response ([2]; 0.3 µM, 4,5 h): 2758.19 GFP+-cells/confluence ∙ 1000
- Mean NFκB response ([2]; 0.3 µM, 7,5 h): 7233.84 GFP+-cells/confluence ∙ 1000
- Mean NFκB response ([2]; 0.3 µM, 10,5 h): 19121.46 GFP+-cells/confluence ∙ 1000
- Mean NFκB response ([2]; 0.3 µM, 13,5 h): 28203.30 GFP+-cells/confluence ∙ 1000
- Mean NFκB response ([2]; 0.3 µM, 16,6 h): 34624.31 GFP+-cells/confluence ∙ 1000
- Mean NFκB response ([2]; 0.3 µM, 19,5 h): 39396.74 GFP+-cells/confluence ∙ 1000
- Mean NFκB response ([2]; 0.3 µM, 22,5 h): 42069.32 GFP+-cells/confluence ∙ 1000
- Mean NFκB response ([2]; 0.3 µM, 3 h): 2422.37 GFP+-cells/confluence ∙ 1000
- Mean NFκB response ([2]; 0.3 µM, 6 h): 3882.85 GFP+-cells/confluence ∙ 1000
- Mean NFκB response ([2]; 0.3 µM, 9 h): 13703.44 GFP+-cells/confluence ∙ 1000
- Mean NFκB response ([2]; 0.3 µM, 12 h): 24104.26 GFP+-cells/confluence ∙ 1000
- Mean NFκB response ([2]; 0.3 µM, 15 h): 31750.86 GFP+-cells/confluence ∙ 1000
- Mean NFκB response ([2]; 0.3 µM, 18 h): 37025.53 GFP+-cells/confluence ∙ 1000
- Mean NFκB response ([2]; 0.3 µM, 21 h): 40865.92 GFP+-cells/confluence ∙ 1000
- Mean NFκB response ([2]; 0.3 µM, 24 h): 43618.62 GFP+-cells/confluence ∙ 1000
- ΔTm at 20 µM (AURKA): 0.19 °C
- Necrosis induction [NI] (HEK293T cells [3]; 0.3 µM): 0.87 and 0.82 and 0.90 and 1.20
- ΔTm at 20 µM (TRIM24): -1.35 °C
- activity at 0.3 µM ([4]; Homo sapiens, HeLa, 0.3 µM, single replicates n=1 to n=5, read-out: ER stress [rel. ATF6 activity]): 96%
- Metabolic activity [MA] (HEK293T cells [5]; 0.3 µM): 1.05 (2×) and 0.84 and 0.94 and 1.07 and 0.99 (2×) and 1.13
- ΔTm at 20 µM (MAPK1): 0.26 °C
- ΔTm at 20 µM (FGFR3): 0.44 °C
- IC50 (NR3B3 (ERRγ); (lit.), read-out: Potency [nM] IC50, NR3B3 (ERRγ)): 13 ± 2 nM
- ΔTm at 20 µM (CDK2): 1.16 °C
- Growth rate [GR] (HEK293T cells [6]; 0.3 µM): 0.54 and 1.52 and 0.90 (2×) and 1.13 and 0.87 and 0.95 and 0.88 and 2.38 and 0.44

SMILES: CC(C)c1ccc(/C=N/NC(=O)c2ccc(O)cc2)cc1 [GSK4716]
- Apoptosis induction [AI] (HEK293T cells [1]; 3 µM): 1.16 and 0.91 and 0.96 and 0.89 and 0.51 and 0.66
- ΔTm at 20 µM (BRD4): -0.72 °C
- ΔTm at 20 µM (GSK3B): -3.45 °C
- VP16 control [fold reporter gene activity] (Gal4-VP16): 1.46 fold reporter gene activity and 1.30 fold reporter gene activity and 1.47 fold reporter gene activity
- rel. activity from literature, NR3B2 (ERRβ): fold activation (NR3B2 (ERRβ)): 10 fold
- ΔTm at 20 µM (ABL1): 1.07 °C
- ΔTm at 20 µM (BRPF1): 0.6 °C
- Mean NFκB response ([2]; 3 µM, 1,5 h): 3350.67 GFP+-cells/confluence ∙ 1000
- Mean NFκB response ([2]; 3 µM, 4,5 h): 4011.96 GFP+-cells/confluence ∙ 1000
- Mean NFκB response ([2]; 3 µM, 7,5 h): 8902.65 GFP+-cells/confluence ∙ 1000
- Mean NFκB response ([2]; 3 µM, 10,5 h): 19241.33 GFP+-cells/confluence ∙ 1000
- Mean NFκB response ([2]; 3 µM, 13,5 h): 27824.67 GFP+-cells/confluence ∙ 1000
- Mean NFκB response ([2]; 3 µM, 16,6 h): 34184.33 GFP+-cells/confluence ∙ 1000
- Mean NFκB response ([2]; 3 µM, 19,5 h): 38593.33 GFP+-cells/confluence ∙ 1000
- Mean NFκB response ([2]; 3 µM, 22,5 h): 41930.00 GFP+-cells/confluence ∙ 1000
- Mean NFκB response ([2]; 3 µM, 3 h): 3264.72 GFP+-cells/confluence ∙ 1000
- Mean NFκB response ([2]; 3 µM, 6 h): 5255.77 GFP+-cells/confluence ∙ 1000
- Mean NFκB response ([2]; 3 µM, 9 h): 14135.33 GFP+-cells/confluence ∙ 1000
- Mean NFκB response ([2]; 3 µM, 12 h): 23629.33 GFP+-cells/confluence ∙ 1000
- Mean NFκB response ([2]; 3 µM, 15 h): 31599.67 GFP+-cells/confluence ∙ 1000
- Mean NFκB response ([2]; 3 µM, 18 h): 36410.00 GFP+-cells/confluence ∙ 1000
- Mean NFκB response ([2]; 3 µM, 21 h): 40543.33 GFP+-cells/confluence ∙ 1000
- Mean NFκB response ([2]; 3 µM, 24 h): 43546.67 GFP+-cells/confluence ∙ 1000
- ΔTm at 20 µM (AURKA): 0.71 °C
- Necrosis induction [NI] (HEK293T cells [3]; 3 µM): 0.73 and 0.72 and 1.06 and 0.88
- ΔTm at 20 µM (TRIM24): 0.64 °C
- ATF6 activity (tunicamycin-induced endoplasmic reticulum stress) ([4]; Hela ATF6 reporter cells, tunicamycin 100 ng/mL, 18 h, compounds at recommended concentrations, n = 5): strongly ameliorated the tunicamycin-induced endoplasmic reticulum stress
- activity at 3 µM ([4]; Homo sapiens, HeLa, 3 µM, single replicates n=1 to n=5, read-out: ER stress [rel. ATF6 activity]): 15%
- Metabolic activity [MA] (HEK293T cells [5]; 3 µM): 1.04 and 0.92 and 0.86 and 0.83 and 0.84 (2×) and 0.81 and 0.76
- ΔTm at 20 µM (MAPK1): 0.09 °C
- ΔTm at 20 µM (FGFR3): 0.7 °C
- ΔTm at 20 µM (CSNK1D): -0.73 °C
- rel. activity from literature, NR3B3 (ERRγ): fold activation (NR3B3 (ERRγ)): 6 fold
- ΔTm at 20 µM (CDK2): 1.04 °C
- Growth rate [GR] (HEK293T cells [6]; 3 µM): 0.56 and 4.17 and 0.59 and 0.95 and 0.79 and 0.39 and 0.32 and 1.23 and 0.96 and 33.22
